Columns and labels:
ECHCG (Barnyardgrass) [1] = experiment: Preemergence herbicidal evaluation; type: in vivo, Echinochloa crus-galli; conditions: preemergence, rated 4-5 weeks after treatment, 0-9 scale
Method in brief: (§1)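 Seeds were mixed with potting soil and planted on about one inch of soil, then sprayed with test compound in aqueous acetone at about 0.0156 to 0.500 kg per hectare. Plants grew under standard greenhouse care and were visually rated 0-9 against untreated controls 4-5 weeks post-treatment.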

AMBEL (Ragweed, Common) = experiment: Postemergence herbicidal evaluation; type: in vivo, Ambrosia artemisifolia; conditions: postemergence
Method in brief: (§2)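 Compound is applied as a foliar spray to seedlings about two weeks old, formulated in equal parts acetone and water with 0.5% TWEEN 20 and delivered at 40 psi to give about 0.0156–0.500 kg per hectare. Injury is rated visually 0–9 after four to five weeks.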

[2] = tested on: ECHORC (Watergrass (Calif.)); experiment: Postemergence weed control under flooded paddy conditions; type: in vivo, Echinochloa oryzoides; conditions: postemergence weeds, rated 3 to 4 weeks after treatment
Method in brief: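 Containers holding 3–5 cm weeds and rice at 1.5–2.5 leaves are flooded to 1.5–3 cm above soil. Compound in 50/50 v/v aqueous/acetone is then added directly to the water, about 0.0313–0.500 kg/ha. Plants are kept in the greenhouse and rated 0–9 visually at 3–4 weeks.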

SETVI (Foxtail, Green) = experiment: Postemergence herbicidal evaluation; type: in vivo, Setaria viridis; conditions: postemergence
Method in brief: as §2

ZEAMX (Corn, Field) = experiment: Preemergence herbicidal evaluation; type: in vivo, Zea mays; conditions: preemergence, rated 4-5 weeks after treatment, 0-9 scale
Method in brief: as §1

GALAP (Galium) = experiment: Preemergence herbicidal evaluation; type: in vivo, Galium aparine; conditions: preemergence, rated 4-5 weeks after treatment, 0-9 scale
Method in brief: as §1

[3] = tested on: IPOHE (Morningglory, Ivyleaf); experiment: Postemergence herbicidal evaluation; type: in vivo, Ipomoea hederacea; conditions: postemergence
Method in brief: as §2

ECHCG (Barnyardgrass) [4] = experiment: Postemergence herbicidal evaluation; type: in vivo, Echinochloa crus-galli; conditions: postemergence
Method in brief: as §2

[5] = tested on: IPOHE (Morningglory, Ivyleaf); experiment: Preemergence herbicidal evaluation; type: in vivo, Ipomoea hederacea; conditions: preemergence, rated 4-5 weeks after treatment, 0-9 scale
Method in brief: as §1

[6] = tested on: TRZAWR (Wheat, Winter, cv Riband); experiment: Postemergence herbicidal evaluation; type: in vivo, Triticum aestivum; conditions: postemergence
Method in brief: as §2

[7] = tested on: GLXMAW (Soybean, Williams); experiment: Postemergence herbicidal evaluation; type: in vivo, Glycine max, (L.) Merr. cv Williams; conditions: postemergence
Method in brief: as §2

[8] = tested on: CHEAL (Lambsquarters, Common); experiment: Preemergence herbicidal evaluation; type: in vivo, Chenopodium album; conditions: preemergence, rated 4-5 weeks after treatment, 0-9 scale
Method in brief: as §1

CASOB (Sicklepod) = experiment: Preemergence herbicidal evaluation; type: in vivo, Cassia obtusifolia; conditions: preemergence, rated 4-5 weeks after treatment, 0-9 scale
Method in brief: as §1

ABUTH (Velvetleaf) = experiment: Postemergence herbicidal evaluation; type: in vivo, Abutilon theophrasti; conditions: postemergence
Method in brief: as §2

CN1C(=O)C(CC(=O)Nc2ccccc2)SC1=Nc1cc(-n2c(=O)cc(C(F)(F)F)n(C)c2=O)c(F)cc1Cl (centres unmarked) [Compound 91, 2-{{2-Chloro-5-[3,6-dihydro-3-methyl-2,6-dioxo-4-(trifluoromethyl)-1(2H)-pyrimidinyl]-4-fluorophenyl}imino}-3-methyl-4-oxo-5-thiazolidineacetanilide]
2.5: TRZAWR herbicidal rating ([6]; rate 0.0158 kg/ha)
4.0: AMBEL herbicidal rating (AMBEL (Ragweed, Common); rate 0.0630 kg/ha) | Herbicidal rating ECHORC ([2]; Rate 0.2500 kg/ha) | TRZAWR herbicidal rating ([6]; rate 0.0630 kg/ha) | CHEAL rating ([8]; 0.1250 kg/ha)
9.0: IPOHE herbicidal rating ([3]; rate 0.0315 kg/ha) | IPOHE herbicidal rating ([3]; rate 0.0630 kg/ha) | CHEAL rating ([8]; 0.2500 kg/ha) | ABUTH herbicidal rating (ABUTH (Velvetleaf); rate 0.0315 kg/ha) | ABUTH herbicidal rating (ABUTH (Velvetleaf); rate 0.0630 kg/ha)
3.0: TRZAWR herbicidal rating ([6]; rate 0.0315 kg/ha)
5.5: GLXMAW herbicidal rating ([7]; rate 0.0630 kg/ha)
2.0: Herbicidal rating ECHORC ([2]; Rate 0.1250 kg/ha)
0.0: ECHCG rating (ECHCG (Barnyardgrass) [1]; 0.1250 kg/ha) | ECHCG rating (ECHCG (Barnyardgrass) [1]; 0.2500 kg/ha) | AMBEL herbicidal rating (AMBEL (Ragweed, Common); rate 0.0158 kg/ha) | AMBEL herbicidal rating (AMBEL (Ragweed, Common); rate 0.0315 kg/ha) | Herbicidal rating ECHORC ([2]; Rate 0.0313 kg/ha) | Herbicidal rating ECHORC ([2]; Rate 0.0625 kg/ha) | SETVI herbicidal rating (SETVI (Foxtail, Green); rate 0.0158 kg/ha) | SETVI herbicidal rating (SETVI (Foxtail, Green); rate 0.0315 kg/ha) | SETVI herbicidal rating (SETVI (Foxtail, Green); rate 0.0630 kg/ha) | ZEAMX rating (ZEAMX (Corn, Field); 0.1250 kg/ha) | ZEAMX rating (ZEAMX (Corn, Field); 0.2500 kg/ha) | GALAP rating (GALAP (Galium); 0.1250 kg/ha) | GALAP rating (GALAP (Galium); 0.2500 kg/ha) | ECHCG herbicidal rating (ECHCG (Barnyardgrass) [4]; rate 0.0158 kg/ha) | ECHCG herbicidal rating (ECHCG (Barnyardgrass) [4]; rate 0.0315 kg/ha) | ECHCG herbicidal rating (ECHCG (Barnyardgrass) [4]; rate 0.0630 kg/ha) | IPOHE rating ([5]; 0.1250 kg/ha) | IPOHE rating ([5]; 0.2500 kg/ha) | CASOB rating (CASOB (Sicklepod); 0.1250 kg/ha) | CASOB rating (CASOB (Sicklepod); 0.2500 kg/ha)
7.0: IPOHE herbicidal rating ([3]; rate 0.0158 kg/ha) | ABUTH herbicidal rating (ABUTH (Velvetleaf); rate 0.0158 kg/ha)
4.5: GLXMAW herbicidal rating ([7]; rate 0.0158 kg/ha) | GLXMAW herbicidal rating ([7]; rate 0.0315 kg/ha)

CN1C(=O)C(CC(=O)OCCF)SC1=Nc1cc(-n2c(=O)cc(C(F)(F)F)n(C)c2=O)c(F)cc1Cl (centres unmarked) [Compound 93, 2-Fluoroethyl 2-{{2-chloro-5-[3,6-dihydro-3-methyl-2,6-dioxo-4-(trifluoromethyl)-1(2H)-pyrimidinyl]-4-fluorophenyl}imino}-3-methyl-4-oxo-5-thiazolidineacetate]
2.0: ECHCG herbicidal rating (ECHCG (Barnyardgrass) [4]; rate 0.0315 kg/ha) | IPOHE rating ([5]; 0.0625 kg/ha)
1.0: ZEAMX rating (ZEAMX (Corn, Field); 0.1250 kg/ha)
7.5: TRZAWR herbicidal rating ([6]; rate 0.0630 kg/ha)
5.0: TRZAWR herbicidal rating ([6]; rate 0.0158 kg/ha)
3.0: Herbicidal rating ECHORC ([2]; Rate 0.0625 kg/ha) | CHEAL rating ([8]; 0.0313 kg/ha)
4.0: Herbicidal rating ECHORC ([2]; Rate 0.1250 kg/ha)
7.0: Herbicidal rating ECHORC ([2]; Rate 0.2500 kg/ha) | ECHCG herbicidal rating (ECHCG (Barnyardgrass) [4]; rate 0.0630 kg/ha)
9.0: AMBEL herbicidal rating (AMBEL (Ragweed, Common); rate 0.0158 kg/ha) | AMBEL herbicidal rating (AMBEL (Ragweed, Common); rate 0.0315 kg/ha) | AMBEL herbicidal rating (AMBEL (Ragweed, Common); rate 0.0630 kg/ha) | SETVI herbicidal rating (SETVI (Foxtail, Green); rate 0.0158 kg/ha) | SETVI herbicidal rating (SETVI (Foxtail, Green); rate 0.0315 kg/ha) | SETVI herbicidal rating (SETVI (Foxtail, Green); rate 0.0630 kg/ha) | GALAP rating (GALAP (Galium); 0.1250 kg/ha) | GALAP rating (GALAP (Galium); 0.2500 kg/ha) | IPOHE herbicidal rating ([3]; rate 0.0158 kg/ha) | IPOHE herbicidal rating ([3]; rate 0.0315 kg/ha) | IPOHE herbicidal rating ([3]; rate 0.0630 kg/ha) | IPOHE rating ([5]; 0.1250 kg/ha) | IPOHE rating ([5]; 0.2500 kg/ha) | GLXMAW herbicidal rating ([7]; rate 0.0315 kg/ha) | GLXMAW herbicidal rating ([7]; rate 0.0630 kg/ha) | CHEAL rating ([8]; 0.0625 kg/ha) | CHEAL rating ([8]; 0.1250 kg/ha) | CHEAL rating ([8]; 0.2500 kg/ha) | CASOB rating (CASOB (Sicklepod); 0.2500 kg/ha) | ABUTH herbicidal rating (ABUTH (Velvetleaf); rate 0.0158 kg/ha) | ABUTH herbicidal rating (ABUTH (Velvetleaf); rate 0.0315 kg/ha) | ABUTH herbicidal rating (ABUTH (Velvetleaf); rate 0.0630 kg/ha)
0.0: ECHCG rating (ECHCG (Barnyardgrass) [1]; 0.0313 kg/ha) | ECHCG rating (ECHCG (Barnyardgrass) [1]; 0.0625 kg/ha) | ECHCG rating (ECHCG (Barnyardgrass) [1]; 0.1250 kg/ha) | ECHCG rating (ECHCG (Barnyardgrass) [1]; 0.2500 kg/ha) | Herbicidal rating ECHORC ([2]; Rate 0.0313 kg/ha) | ZEAMX rating (ZEAMX (Corn, Field); 0.0313 kg/ha) | ZEAMX rating (ZEAMX (Corn, Field); 0.0625 kg/ha) | GALAP rating (GALAP (Galium); 0.0313 kg/ha) | GALAP rating (GALAP (Galium); 0.0625 kg/ha) | ECHCG herbicidal rating (ECHCG (Barnyardgrass) [4]; rate 0.0158 kg/ha) | IPOHE rating ([5]; 0.0313 kg/ha) | CASOB rating (CASOB (Sicklepod); 0.0313 kg/ha) | CASOB rating (CASOB (Sicklepod); 0.0625 kg/ha) | CASOB rating (CASOB (Sicklepod); 0.1250 kg/ha)
6.0: ZEAMX rating (ZEAMX (Corn, Field); 0.2500 kg/ha) | TRZAWR herbicidal rating ([6]; rate 0.0315 kg/ha)
8.5: GLXMAW herbicidal rating ([7]; rate 0.0158 kg/ha)

— US20020137929A1, “1 - (3-heterocyclylphenyl) isothiourea, -isourea, -guanidine and -amidine herbicidal agents” (Intellectual Property Department, BASF Aktiengesellschaft, priority 1998, published 2002)
